According to PubChem BioAssay (NCI):
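The compound was tested at five concentrations on cells cultured in 96-well plates, with a 48-hour exposure period. At the GI50, growth is halved. Definition used: TGI = concentration required for complete inhibition of growth.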

Tests used:
Test in all cases: NCI-60 cell line screen, 48 h
[1] = system: EKVX NSCLC
[2] = system: A549 NSCLC
[3] = system: 786-0 renal
[4] = system: NCI-H460 lung
[5] = system: RXF 393 renal
[6] = system: SF-295 CNS
[7] = system: OVCAR-3 ovarian
[8] = system: SN12C renal
[9] = system: LOX IMVI melanoma
[10] = system: SNB-19 CNS
[11] = system: NCI-H226 lung
[12] = system: SK-MEL-5 melanoma
[13] = system: OVCAR-4 ovarian
[14] = system: HL-60(TB) leukemia
[15] = system: SNB-75 CNS
[16] = system: CAKI-1 renal
[17] = system: BT-549 breast
[18] = system: IGROV1 ovarian
[19] = system: HOP-62 NSCLC
[20] = system: KM12 colon
[21] = system: SF-539 CNS
[22] = system: T-47D breast
[23] = system: NCI/ADR-RES ovarian
[24] = system: CCRF-CEM leukemia
[25] = system: K-562 leukemia
[26] = system: U251 CNS
[27] = system: UACC-257 melanoma
[28] = system: UACC-62 melanoma
[29] = system: NCI-H522 lung
[30] = system: COLO 205 colon
[31] = system: SK-MEL-28 melanoma
[32] = system: A498 renal
[33] = system: OVCAR-8 ovarian
[34] = system: SF-268 CNS
[35] = system: NCI-H23 lung
[36] = system: MDA-MB-231 breast
[37] = system: HT29 colon
[38] = system: M14 melanoma
[39] = system: SK-MEL-2 melanoma
[40] = system: OVCAR-5 ovarian
[41] = system: TK-10 renal
[42] = system: DU-145 prostate
[43] = system: HCC-2998 colon
[44] = system: ACHN renal
[45] = system: SK-OV-3 ovarian
[46] = system: MOLT-4 leukemia
[47] = system: MDA-MB-435
[48] = system: SR leukemia
[49] = system: HOP-92 NSCLC
[50] = system: SW-620 colon
[51] = system: HCT-15 colon
[52] = system: HCT-116 colon
[53] = system: RPMI-8226 leukemia
[54] = system: MALME-3M melanoma
[55] = system: HS 578T breast
[56] = system: MCF7 breast
[57] = system: PC-3 prostate
[58] = system: UO-31 renal

Which results are given for `COCC(=O)NC/C=C/c1ccc2ncnc(Nc3ccc(Oc4ccc(C)nc4)c(C)c3)c2c1`?
GI50 [1]: 4.16 µM; TGI [1]: 48.7 µM; GI50 [2]: 13.8 µM; TGI [2]: > 100 µM; GI50 [3]: 15.1 µM; TGI [3]: 42 µM; GI50 [4]: 4.74 µM; TGI [4]: 22.3 µM; GI50 [5]: 13.9 µM; TGI [5]: 36.3 µM; GI50 [6]: 12.5 µM; TGI [6]: 38.1 µM; GI50 [7]: 10.4 µM; TGI [7]: 28 µM; GI50 [8]: 12 µM; TGI [8]: 35.7 µM; GI50 [9]: 15 µM; TGI [9]: 33.8 µM; GI50 [10]: 18.4 µM; TGI [10]: > 100 µM; GI50 [11]: 14.8 µM; TGI [11]: 69.3 µM; GI50 [12]: 3.26 µM; TGI [12]: 13 µM; GI50 [13]: 4.83 µM; TGI [13]: 31.1 µM; GI50 [14]: 21.9 µM; TGI [14]: 59 µM; GI50 [15]: 12.5 µM; TGI [15]: 27.2 µM; GI50 [16]: 3.31 µM; TGI [16]: 49.5 µM; GI50 [17]: 6.81 µM; TGI [17]: 24.9 µM; GI50 [18]: 15.9 µM; TGI [18]: > 89.2 µM; GI50 [19]: 22.4 µM; TGI [19]: 71 µM; GI50 [20]: 18.7 µM; TGI [20]: 53 µM; GI50 [21]: 15.1 µM; TGI [21]: 31.7 µM; GI50 [22]: 1.19 µM; TGI [22]: 13.6 µM; GI50 [23]: 17.2 µM; TGI [23]: 88.8 µM; GI50 [24]: 14 µM; TGI [24]: > 79.9 µM; GI50 [25]: 17.8 µM; TGI [25]: > 91.4 µM; GI50 [26]: 13.2 µM; TGI [26]: 31.9 µM; GI50 [27]: 14.9 µM; TGI [27]: 36.1 µM; GI50 [28]: 10.6 µM; TGI [28]: 34 µM; GI50 [29]: 3.4 µM; TGI [29]: 25.8 µM; GI50 [30]: 6 µM; TGI [30]: 25.6 µM; GI50 [31]: 12.9 µM; TGI [31]: 30.6 µM; GI50 [32]: 4.13 µM; TGI [32]: 32.6 µM; GI50 [33]: 15.9 µM; TGI [33]: 92.4 µM; GI50 [34]: 15.7 µM; TGI [34]: 50.9 µM; GI50 [35]: 17.4 µM; TGI [35]: 55.4 µM; GI50 [36]: 12.7 µM; TGI [36]: 36.1 µM; GI50 [37]: 15.5 µM; TGI [37]: 39.4 µM; GI50 [38]: 11.4 µM; TGI [38]: 31 µM; GI50 [39]: 18.5 µM; TGI [39]: 41.7 µM; GI50 [40]: 12.7 µM; TGI [40]: 35.9 µM; GI50 [41]: 7.52 µM; TGI [41]: 53.9 µM; GI50 [42]: 9.54 µM; TGI [42]: > 100 µM; GI50 [43]: 20.1 µM; TGI [43]: 39.7 µM; GI50 [44]: 3.98 µM; TGI [44]: 69.3 µM; GI50 [45]: 0.295 µM; TGI [45]: 4.52 µM; GI50 [46]: 13.8 µM; TGI [46]: 53.8 µM; GI50 [47]: 11.4 µM; TGI [47]: 29.9 µM; GI50 [48]: 10.7 µM; TGI [48]: 50.4 µM; GI50 [49]: 6.48 µM; TGI [49]: 36.3 µM; GI50 [50]: 17.4 µM; TGI [50]: 40.9 µM; GI50 [51]: 9.36 µM; TGI [51]: 74.2 µM; GI50 [52]: 13.7 µM; TGI [52]: 30.9 µM; GI50 [53]: 8.75 µM; TGI [53]: 36.1 µM; GI50 [54]: 14.4 µM; TGI [54]: 35.4 µM; GI50 [55]: 17.2 µM; TGI [55]: 56.1 µM; GI50 [56]: 4.11 µM; TGI [56]: 32.5 µM; GI50 [57]: 15.5 µM; TGI [57]: > 83.1 µM; GI50 [58]: 7.8 µM; TGI [58]: 35.9 µM
